In patent publication US20130310379A1, “MODULATORS OF METHYL MODIFYING ENZYMES, COMPOSITIONS AND USES THEREOF” (CONSTELLATION PHARMACEUTICALS, priority 2010, published 2013):

Key:
Y641N EZH2 = Y641N EZH2 (Homo sapiens, UniProt Q15910, Y641N); test: Y641N EZH2 assay: performed as the EZH2 assay, using reconstituted H3K27Me2 oligonucleosomes as substrate; format: biochemical
Procedure: Assays were carried out by mixing rPRC2 together with biotinylated oligonucleosome substrates in the presence of the radio-labeled enzyme co-factor, S-adenosyl-L-methionine (^3H SAM) (Perkin Elmer) and monitoring the enzymatically mediated transfer of tritiated methyl groups from ^3H SAM to histone lysine residues. The amount of resulting tritated methylhistone product was measured by first capturing the biotinylated oligonuclesomes in streptavidin (SAV) coated FlashPlates (Perkin Elmer), followed by a wash step to remove un-reacted ^3H SAM, and then counting on a TopCount NXT 384 well plate scintillation counter (Perkin Elmer). The final assay conditions for EZH2 were as follows: 50 mM Tris Buffer pH 8.5, 1 mM DTT, 69 uM Brij-35 detergent, 5.0 mM MgCl2, 0.1 mg/mL BSA, 0.2 uM ^3H SAM, 0.2 uM biotinylated oligonucleosomes, 3.6 uM H3K27me3 peptide and 2 nM EZH2.
Compound IC50 measurements were obtained as follows: Compounds were first dissolved in 100% DMSO as 10 mM stock solutions. […] A 12.5 uL volume of the HMT enzyme, H3K27me3 peptide and oligonucleosome substrate in assay buffer was added to each well of the assay plate using a Multidrop Combi (ThermoFisher). Compounds were pre-incubated with the enzyme for 20 min, followed by initiation of the methyltransferase reaction by addition of 12.5 uL of 3H SAM in assay buffer (final volume=25 uL). The final concentrations of compounds ranged from a top default concentration of 80 uM down to 0.16 uM in ten 2-fold dilution steps. Reactions were carried out for 60 minutes and quenched with 20 uL per well of 1.96 mM SAH, 50 mM Tris PH 8.5, 200 mM EDTA. Stopped reactions were transferred to SAV coated Flashplates (Perkin Elmer), incubated for 120 min, washed with a plate washer, and then read on the TopCount NXT (1.0 min/well) to measure the amount of methylhistone product formed during the reaction. The amount of methylhistone product was compared with the amount of product formed in the 0% and 100% inhibition control wells allowing the calculation of % Inhibition in the presence of the individual compounds at various concentrations. IC50's were computed using a 4 parameter fit non-linear curve fitting software package (XLFIT, part of the database package, ActivityBase (IDBS)) where the four parameters were IC50, Hill slope, pre-transitional baseline (0% INH), and post-transitional baseline (100% INH); with the latter two parameters being fixed to zero and 100%, respectively, by default.

EZH2 = EZH2 (Homo sapiens, UniProt Q15910); test: EZH2 assay: rPRC2 with biotinylated oligonucleosome substrates and 3H SAM, FlashPlate scintillation counting, IC50; format: biochemical; conditions: rPRC2, biotinylated oligonucleosome substrates, 3H SAM; read-out: EZH2 IC50
EZH2, sequence (Q15910 whole entry): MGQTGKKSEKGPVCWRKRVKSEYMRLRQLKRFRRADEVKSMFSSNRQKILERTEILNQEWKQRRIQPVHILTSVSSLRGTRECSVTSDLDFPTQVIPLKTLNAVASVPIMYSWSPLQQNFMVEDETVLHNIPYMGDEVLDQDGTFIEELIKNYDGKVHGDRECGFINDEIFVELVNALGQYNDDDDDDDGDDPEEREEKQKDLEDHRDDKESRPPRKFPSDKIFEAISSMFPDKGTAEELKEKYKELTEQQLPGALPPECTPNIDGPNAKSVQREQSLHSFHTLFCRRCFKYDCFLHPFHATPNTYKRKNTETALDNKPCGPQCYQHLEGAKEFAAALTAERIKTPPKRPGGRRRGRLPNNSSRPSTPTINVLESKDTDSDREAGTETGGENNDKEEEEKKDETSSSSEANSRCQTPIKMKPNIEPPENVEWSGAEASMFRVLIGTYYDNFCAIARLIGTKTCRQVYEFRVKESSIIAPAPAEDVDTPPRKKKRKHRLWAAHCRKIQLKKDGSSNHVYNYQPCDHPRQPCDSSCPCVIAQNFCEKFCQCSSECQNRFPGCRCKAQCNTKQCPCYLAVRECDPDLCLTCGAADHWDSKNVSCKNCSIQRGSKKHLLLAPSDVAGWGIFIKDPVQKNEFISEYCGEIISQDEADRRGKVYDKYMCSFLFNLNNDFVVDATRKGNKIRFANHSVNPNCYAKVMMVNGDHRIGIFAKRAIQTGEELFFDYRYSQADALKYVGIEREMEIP
EZH2, sequence (O75530 whole entry partner): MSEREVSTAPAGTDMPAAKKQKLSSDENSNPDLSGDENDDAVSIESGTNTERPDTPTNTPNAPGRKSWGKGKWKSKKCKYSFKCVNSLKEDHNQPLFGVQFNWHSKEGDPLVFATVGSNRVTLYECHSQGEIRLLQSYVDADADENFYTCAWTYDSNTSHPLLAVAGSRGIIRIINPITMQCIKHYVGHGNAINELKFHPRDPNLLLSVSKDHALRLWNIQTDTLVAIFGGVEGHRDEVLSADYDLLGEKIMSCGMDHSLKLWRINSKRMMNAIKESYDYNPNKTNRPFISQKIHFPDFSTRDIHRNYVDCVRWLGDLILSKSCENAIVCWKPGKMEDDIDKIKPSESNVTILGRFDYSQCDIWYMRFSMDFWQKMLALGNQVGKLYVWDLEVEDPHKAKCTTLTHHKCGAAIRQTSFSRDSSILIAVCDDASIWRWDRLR
EZH2, sequence (Q15022 whole entry partner): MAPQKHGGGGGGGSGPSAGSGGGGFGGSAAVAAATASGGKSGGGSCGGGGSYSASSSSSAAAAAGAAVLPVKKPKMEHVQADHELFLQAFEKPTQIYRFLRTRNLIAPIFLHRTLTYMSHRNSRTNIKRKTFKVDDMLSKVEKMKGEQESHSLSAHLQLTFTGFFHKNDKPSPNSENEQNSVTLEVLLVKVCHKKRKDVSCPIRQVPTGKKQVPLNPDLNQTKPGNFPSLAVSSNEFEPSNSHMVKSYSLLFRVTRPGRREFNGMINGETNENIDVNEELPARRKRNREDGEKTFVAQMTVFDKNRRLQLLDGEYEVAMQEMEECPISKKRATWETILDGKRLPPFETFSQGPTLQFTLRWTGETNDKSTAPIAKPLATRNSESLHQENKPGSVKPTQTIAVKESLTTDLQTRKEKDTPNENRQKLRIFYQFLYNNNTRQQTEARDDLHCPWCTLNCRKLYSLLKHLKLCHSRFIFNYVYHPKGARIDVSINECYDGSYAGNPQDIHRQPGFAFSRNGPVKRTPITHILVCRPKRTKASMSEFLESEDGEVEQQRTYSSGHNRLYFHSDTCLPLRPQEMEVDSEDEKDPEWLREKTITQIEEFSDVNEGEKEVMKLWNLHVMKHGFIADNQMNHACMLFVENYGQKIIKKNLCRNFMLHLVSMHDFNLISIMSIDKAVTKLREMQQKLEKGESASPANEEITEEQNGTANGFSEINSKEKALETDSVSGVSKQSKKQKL
Summary of the method: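 IC50 from 4-parameter fit, baselines fixed at 0 and 100%. Compounds (top 80 uM, 2-fold series to 0.16 uM) pre-incubated 20 min with 2 nM EZH2-PRC2; 60-min methylation in pH 8.5 Tris with 0.2 uM 3H SAM, 0.2 uM oligonucleosomes, 3.6 uM H3K27me3 peptide.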

Y641N EZH2, sequence (Q15910 whole entry Y641N): as the sequence (Q15910 whole entry) above, with Y641N counted along it
Y641N EZH2, sequence (O75530 whole entry partner): as the sequence (O75530 whole entry partner) above
Y641N EZH2, sequence (Q15022 whole entry partner): as the sequence (Q15022 whole entry partner) above

Compound | IC50 (Y641N EZH2) | IC50 (EZH2)
CC1(C)CC(N2Cc3cc(Oc4ccccc4C#N)c(Cl)cc3C2=O)CC(C)(C)N1 [Compound I-356] | > 80 µM | > 80 µM
CC1(C)CC(NC(=O)c2ccc(COc3cccc(-c4ccc5[nH]ccc5c4)c3)cc2)CC(C)(C)N1 [Compound I-183] | 20 to 80 µM | 20 to 80 µM
CN1CCN(c2cccc(Oc3ccc(C(=O)NC4CC(C)(C)NC(C)(C)C4)cc3Cl)c2)CC1 [Compound I-417] | > 80 µM | 20 to 80 µM
CC1(C)CC(NC(=O)c2ccc(Oc3ccccc3-c3cccnc3)c(Cl)c2)CC(C)(C)N1 [Compound I-207] | 20 to 80 µM | < 5 µM
N#Cc1ccccc1Oc1ccc(C(=O)NC2CCSCC2)cc1Cl [Compound I-427] | > 80 µM | > 80 µM
CC1(C)CC(NC(=O)c2ccc(Oc3cccc(-c4ccnnc4)c3C#N)c(Cl)c2)CC(C)(C)C1O (stereo not shown) [Compound I-548] | 20 to 80 µM | < 5 µM
CC1(C)CC(NC(=O)c2ccc(Cn3cnc4ccccc43)cc2)CC(C)(C)N1 [Compound I-405] | > 80 µM | 20 to 80 µM
CCOc1cc(-c2cccc(Oc3ccc(C(=O)NC4CC(C)(C)NC(C)(C)C4)cc3Cl)c2C#N)ccn1 [Compound I-556] | > 80 µM | < 5 µM
CC1(C)CC(NC(=O)c2ccc(N3CCC(c4ccccc4)C3)c(Cl)c2)CC(C)(C)N1 (stereo not shown) [Compound I-413] | > 80 µM | 20 to 80 µM
CC1(C)CC(NC(=O)c2ccc(Oc3cccc(-c4cccnc4)c3C#N)c(Br)c2)CC(C)(C)N1 [Compound I-364] | < 5 µM | < 5 µM
CNCc1cccc(Oc2ccc(C(=O)NC3CC(C)(C)NC(C)(C)C3)cc2Cl)c1C#N [Compound I-381] | 20 to 80 µM | < 5 µM
CN(C)c1cccc(Oc2ccc(C(=O)NC3CC(C)(C)NC(C)(C)C3)cc2Cl)c1C#N [Compound I-334] | 5 to 20 µM | < 5 µM
CC1(C)CC(NC(=O)c2ccc(Oc3cccc(-c4ccnnc4)c3C#N)c(Cl)c2)CC(C)(C)S1(=O)=O [Compound I-533] | > 80 µM | < 5 µM
CC1(C)CC(NC(=O)c2ccc(Oc3cccc(N4CCNCC4)c3)c(Cl)c2)CC(C)(C)N1 [Compound I-493] | > 80 µM | 20 to 80 µM
CC1(C)CC(NC(=O)c2ccc(Oc3cccc(-c4ccncc4Cl)c3C#N)c(Cl)c2)CC(C)(C)N1 [Compound I-586] | < 5 µM | < 5 µM
CNCc1cccc(Oc2ccc(C(=O)NC3CC(C)(C)NC(C)(C)C3)cn2)c1 [Compound I-415] | > 80 µM | 20 to 80 µM
CC1(C)CC(OCc2ccc(Oc3cccc(-c4ccncn4)c3C#N)c(Cl)c2)CC(C)(C)N1 [Compound I-591, 2-(2-chloro-4-(((2,2,6,6-tetramethylpiperidin-4-yl)oxy)methyl)phenoxy)-6-(pyrimidin-4-yl)benzonitrile] | 20 to 80 µM | < 5 µM
CC1(C)CC(NC(=O)c2ccc(Oc3cccc4cnccc34)cc2)CC(C)(C)N1 [Compound I-171] | 20 to 80 µM | < 5 µM
CC1(C)CC(NC(=O)c2ccc(Oc3cccc(C4CCCO4)c3C#N)c(Cl)c2)CC(C)(C)N1 (stereo not shown) [Compound I-560] | > 80 µM | < 5 µM
CC1(C)CC(NC(=O)c2ccc(Oc3cccc(-c4ccnc(N)c4)c3C#N)c(Cl)c2)CC(C)(C)N1 [Compound I-375] | < 5 µM | < 5 µM
CC1(C)CC(/C=C/c2ccc(Oc3cccc(-c4ccncn4)c3C#N)c(Cl)c2)CC(C)(C)N1 [Compound I-592, (E)-2-(2-chloro-4-(2-(2,2,6,6-tetramethylpiperidin-4-yl)vinyl)phenoxy)-6-(pyrimidin-4-yl)benzonitrile] | 5 to 20 µM | < 5 µM
CC1(C)CC(NC(=O)c2ccc(Oc3cccc4cnccc34)c(Cl)c2)CC(C)(C)N1 [Compound I-324] | 5 to 20 µM | < 5 µM
CC1(C)CC(NC(=O)c2ccc(Oc3cccc(N4CCCC4)c3)c(Cl)c2)CC(C)(C)N1 [Compound I-379] | 20 to 80 µM | 20 to 80 µM
Cc1cc(-c2cccc(Oc3ccc(C(=O)NC4CC(C)(C)NC(C)(C)C4)cc3Cl)c2C#N)ccn1 [Compound I-584] | < 5 µM | < 5 µM

Compound | IC50 (Y641N EZH2) | IC50 (EZH2)
CC1(C)CC(NC(=O)c2ccc(Oc3cccc(N4CCOCC4=O)c3)c(Cl)c2)CC(C)(C)N1 [Compound I-397] | > 80 µM | 5 to 20 µM
CC1(C)CC(NC(=O)c2ccc(Oc3cccc(-c4cnccn4)c3C#N)c(Cl)c2)CC(C)(C)N1 [Compound I-428] | 5 to 20 µM | < 5 µM
CC1(C)CC(NC(=O)c2ccc(Oc3cccc(Cl)c3C#N)c(Cl)c2)CC(C)(C)N1 [Compound I-256] | < 5 µM | < 5 µM
CC1(C)CC(NC(=O)c2ccc(Oc3cccc(-c4ccnnc4)c3C#N)c(Cl)c2)CC(C)(C)C1=O [Compound I-564] | > 80 µM | < 5 µM
CC1(C)CC(NC(=O)c2ccc(C#Cc3ccccc3)cc2)CC(C)(C)N1 [Compound I-173] | 5 to 20 µM | 5 to 20 µM
CC1(C)CC(OC(=O)c2ccc(Oc3cccc(-c4ccnnc4)c3C#N)c(Cl)c2)CC(C)(C)N1 [Compound I-504, 2,2,6,6-tetramethylpiperidin-4-yl 3-chloro-4-(2-cyano-3-(pyridazin-4-yl)phenoxy)benzoate] | < 5 µM | < 5 µM
CC1(C)CC(NC(=O)c2ccc(Oc3cccc(-c4cccnc4)c3C#N)c(Cl)c2)CC(C)(C)N1 [Compound I-308] | < 5 µM | < 5 µM
CC1(C)CC(NC(=O)c2ccc(Oc3cccc(-c4cn[nH]c4)c3C#N)c(Br)c2)CC(C)(C)N1 [Compound I-347] | < 5 µM | < 5 µM
CC1(C)CC(NC(=O)c2ccc(Oc3cccc4c3CCNC4)c(Cl)c2)CC(C)(C)N1 [Compound I-423] | 20 to 80 µM | < 5 µM
CC1(C)CC(NC(=O)c2ccc(Oc3cccc(-c4cn[nH]c4)c3C#N)c(Cl)c2)CC(C)(C)N1 [Compound I-307] | < 5 µM | < 5 µM
COc1cccc(Oc2ccc(C(=O)NC3CC(C)(C)NC(C)(C)C3)cc2Cl)c1C#N [Compound I-333] | 5 to 20 µM | < 5 µM
CC1(C)CC(NC(=O)c2ccc(Oc3cccc(-c4ccncc4)c3C#N)c(Cl)c2)CC(C)(C)N1 [Compound I-339] | < 5 µM | < 5 µM
CN(C(=O)c1ccc(Oc2ccccc2C#N)c(Cl)c1)C1CC(C)(C)NC(C)(C)C1 [Compound I-344] | > 80 µM | 5 to 20 µM
CC1(C)CC(NC(=O)c2ccc(Oc3ccccc3-c3cnc4ccccc4c3)c(Cl)c2)CC(C)(C)N1 [Compound I-320] | 5 to 20 µM | < 5 µM
CN(C)c1ccc(-c2cccc(OCc3ccc(C(=O)NC4CC(C)(C)NC(C)(C)C4)cc3)c2)cn1 [Compound I-154] | 20 to 80 µM | 20 to 80 µM
CC1(C)CC(NC(=O)c2ccc(Oc3ccccc3C#N)c(Br)c2)CC(C)(C)N1 [Compound I-186] | 5 to 20 µM | < 5 µM
Cc1cc(-c2cccc(Oc3ccc(C(=O)NC4CC(C)(C)NC(C)(C)C4)cc3Cl)c2C#N)cc(C)n1 [Compound I-585] | 5 to 20 µM | < 5 µM
CC1(C)CC(NC(=O)c2ccc(Oc3cccc(-c4cn[nH]c4)c3C#N)c(F)c2)CC(C)(C)N1 [Compound I-398] | 5 to 20 µM | < 5 µM
CC1(C)CC(NC(=O)c2ccc(Oc3cccc(-c4ccc(N)nc4)c3C#N)c(Cl)c2)CC(C)(C)N1 [Compound I-312] | < 5 µM | < 5 µM
CC(=O)Nc1ccc(-c2cccc(OCc3ccc(C(=O)NC4CC(C)(C)NC(C)(C)C4)cc3)c2)cc1 [Compound I-167] | 20 to 80 µM | 20 to 80 µM
CC1(C)CC(NC(=O)c2ccc(Oc3cccc(NCC(N)=O)c3)c(Cl)c2)CC(C)(C)N1 [Compound I-304] | > 80 µM | 5 to 20 µM
CN(C)C(=O)Cn1cc(-c2cccc(Oc3ccc(C(=O)NC4CC(C)(C)NC(C)(C)C4)cc3Cl)c2C#N)cn1 [Compound I-395] | 5 to 20 µM | < 5 µM
CC1(C)CC(NC(=O)c2ccc(C(=O)c3ccccc3)cc2)CC(C)(C)N1 [Compound I-431] | > 80 µM | 20 to 80 µM
